Assay results reported in patent US5476847A, “Derivatives of phosphinic acid useful as endothelin converting enzyme inhibitors” (priority 1994, dated 1995).
pIC50: −log10 of the molar value. Read-outs that look alike come from different tables or passages of the source.

Target: T1, ECE (Cavia porcellus, UniProt P97739)
T1 construct: tissue Keystone Biologicals, Cleveland, Ohio; host or cells: frozen guinea pig lungs; lubrol PX-treated lung membranes
T1 sequence (P97739 1-754): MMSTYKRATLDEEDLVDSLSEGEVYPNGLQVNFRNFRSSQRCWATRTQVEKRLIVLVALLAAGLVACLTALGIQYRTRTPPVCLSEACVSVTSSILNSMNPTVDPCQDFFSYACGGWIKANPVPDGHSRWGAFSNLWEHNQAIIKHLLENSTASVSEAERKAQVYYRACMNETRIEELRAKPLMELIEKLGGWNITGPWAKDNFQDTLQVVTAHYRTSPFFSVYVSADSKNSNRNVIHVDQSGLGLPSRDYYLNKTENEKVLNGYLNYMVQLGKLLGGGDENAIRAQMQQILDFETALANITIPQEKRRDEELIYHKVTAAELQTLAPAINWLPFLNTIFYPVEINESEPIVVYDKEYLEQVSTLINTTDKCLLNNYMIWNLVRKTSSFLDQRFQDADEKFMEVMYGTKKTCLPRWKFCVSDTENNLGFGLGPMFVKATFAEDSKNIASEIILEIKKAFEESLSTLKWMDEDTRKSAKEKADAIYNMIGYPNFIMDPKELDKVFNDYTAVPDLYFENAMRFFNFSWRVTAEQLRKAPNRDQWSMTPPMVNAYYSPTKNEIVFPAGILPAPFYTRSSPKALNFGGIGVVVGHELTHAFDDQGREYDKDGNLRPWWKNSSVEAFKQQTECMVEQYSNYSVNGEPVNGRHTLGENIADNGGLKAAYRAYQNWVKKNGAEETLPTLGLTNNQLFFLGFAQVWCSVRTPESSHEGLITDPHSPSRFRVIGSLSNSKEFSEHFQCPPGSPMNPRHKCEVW
Test: In vitro ECE assay (inhibition of [125I]BET-1 to [125I]ET-1 conversion, lubrol-treated guinea pig lung membrane)
Assay type: biochemical
Details: L-GPLGM
Description: The ECE assay is based on the quantitative determination of [^125 l]ET-1 released from [^125 l]BET-1 labeled on Tyrosine-13 by binding to the membrane-bound ET receptor. […] GPLGM was also found to contain a high density of ET receptors. Thus, this preparation was utilized as a source of both ECE and a saturating concentration of ET receptors for the quantitative determination of [251l]ET-1 from the conversion of [125l ]BET-1. Under selected experimental conditions of the ECE assay, specific [125l]ET-1 bound was directly related to ECE activity. Assays were carried out in the presence of varying concentrations of test compounds to evaluate their efficacy in inhibiting ECE activity.
Frozen guinea pig lungs (Keystone Biologicals,Cleveland, Ohio) are weighed and homogenized in 10 times gram tissue weight of solution A (50 mM Tris-HCl, pH 7.4, 0.25M sucrose, and 2 mM EDTA) using a Polytron tissue homogenizer (probe PTA-20S). Homogenization is repeated four times at speed setting seven each for 10 s and with 5-8 min intervals on ice in between homogenization. Homogenates are spun for 30 min at 2000 g (4100 rpm in an SS34 rotor or 3800 rpm in an SA-600 rotor). Supernatants containing membranes are carefully decanted and saved. Pellets are rehomogenized in solution A as described, and homogenates are spun at 2000 g for 30 min. Supernatants are removed, mixed with the supernatants from the first spin, and spun at 37000 rpm in a 45 Ti rotor (107022 g) for 60 min. Pellets containing membranes are suspended in solution B (10 mM Tris-HCl, pH 7.4, and 0.125M sucrose) using a Dounce homogenizer. Samples are divided into 1 ml fractions, rapidly frozen in a dry ice methanol bath, and stored at -80° C. All steps are carried out at 4° C.
GPLGM fractions prepared as described above are thawed and resuspended at a concentration of 1 mg membrane protein/mL in a solution containing 0.06% lubrol PX, 50 mM Tris-HCl (pH 7.4), and 100 mM NaCl. Stir the mixture for 1 h and then spin for 1 h at 37000 rpm in a 45 Ti rotor (107022 g). Discard the supernatants and resuspend the pellets in a solution containing 50 mM Tris-HCl (pH 7.4), and 100 mM NaCl using a Dounce homogenizer, and adjust the final volume to half the original volume. Spin the homogenates for 1 h at 37000 rpm in a 45 Ti rotor (107022 g). Suspend the membrane pellets in solution B and treat as described above. All steps are performed at 4° C.
ECE Assay: Samples of L-GPLGM containing 20 μg protein are incubated in a solution containing 100 mM Tris-HCl (pH 7), 100 mM NaCl, and 5 mg/ml BSA (Fraction V, 98-99% albumin) (Sigma Chemical Co.) at a final reaction volume of 100 μL. The ECE assay is initiated by the addition of [^125 l]BET-1 to obtain a final concentration of 500 pM. Reactions are carried out for 30 min at 37° C. Reactions are terminated by addition of 4 mL of solution C (10 mM Tris-HCl, pH 7.4, and 150 mM NaCl) at 4° C. followed by rapid filtration on Whatman GF/B glass microfiber filters. Filters are presoaked for 1 h at 4° C. in a solution containing 50 mM Tris-HCl (pH 7.4), 10 mg/mL BSA, and 0.1% sodium azide. Wash test tubes and filters four times with 4 mL of solution C at 4° C., and count radioactivity retained on the filters in a γ counter. Non-specific binding is determined in the presence of 1 μM of unlabeled ET-1 (Peninsula Laboratories, Inc., Belmont, Calif.) in the reaction mixture. All reactions are performed in duplicate.
To test the effect of test compounds on ECE activity, ECE assays are carried out in the presence of varying concentrations of the compounds. Assays are initiated following a 2 h incubation of L-GPLGM with the compound at 4° C. ECE activity in the presence of compounds is expressed as a percentage of control ECE activity of the membrane preparation, which is determined simultaneously.

[1] = 2 h preincubation at 4° C., 500 pM [125I]BET-1, table of examples, read-out: ECE IC50
[2] = table of additional compounds, read-out: IC50 (in vitro ECE inhibition activity)

CC(C)C(CP(=O)(O)C(Cc1ccccc1)NC(=O)[C@H](CCC(N)=O)NC(=O)OCc1ccccc1)C(=O)N[C@@H](Cc1c[nH]c2ccccc12)C(=O)O (stereo partly shown) [Example 10C]
pIC50 [1]: 6.70

CCC(C)C(N)C(=O)NC(Cc1ccccc1)P(=O)(O)CC(C(=O)N[C@@H](Cc1c[nH]c2ccccc12)C(=O)O)C(C)C (stereo partly shown)
pIC50 [2]: 5.80

O=C(NC(Cc1ccccc1)P(=O)(O)CC1(C(=O)N[C@@H](Cc2c[nH]c3ccccc23)C(=O)O)CCCCCC1)OCc1ccccc1 (stereo partly shown) [Example 1C]
pIC50 [1]: 6.10

O=C(NC(Cc1ccccc1)P(=O)(O)CC1(C(=O)N[C@@H](Cc2c[nH]c3ccccc23)C(=O)O)CCCC1)OCc1ccccc1 (stereo partly shown) [Cbz, C6 H5CH2, R3 + R4 = (CH2)4]
pIC50 [2]: 6.72

O=C(NC(Cc1ccc(C(=O)O)cc1)P(=O)(O)CC1(C(=O)N[C@@H](Cc2c[nH]c3ccccc23)C(=O)O)CCCC1)OCc1ccccc1 (stereo partly shown) [Example 8B]
pIC50 [1]: 6.31

CC(C)CC(CP(=O)(O)C(CC(C)C)NC(=O)[C@H](CCCCNC(=O)OCc1ccccc1)NS(C)(=O)=O)C(=O)N[C@@H](Cc1c[nH]c2ccccc12)C(=O)O (stereo partly shown) [Example 10B]
pIC50 [1]: 5.85

CC(C)CC(CP(=O)(O)C(Cc1ccc2ccccc2c1)NC(=O)[C@H](CCCCNC(=O)OCc1ccccc1)NS(C)(=O)=O)C(=O)N[C@@H](Cc1c[nH]c2ccccc12)C(=O)O (single isomer, unassigned) [Example 9B]
pIC50 [1]: 5.35

NC(=O)c1ccc(CC(NC(=O)OCc2ccccc2)P(=O)(O)CC2(C(=O)N[C@@H](Cc3c[nH]c4ccccc34)C(=O)O)CCCC2)cc1 (stereo partly shown) [Example 8A]
pIC50 [1]: 6.54

CC(C)CC(CP(=O)(O)C(Cc1ccc2ccccc2c1)NC(=O)C(CCCCNC(=O)OCc1ccccc1)NC(=O)C(CC(C)C)NS(C)(=O)=O)C(=O)N[C@@H](Cc1c[nH]c2ccccc12)C(=O)O (stereo partly shown)
pIC50 [2]: 6.64

CC(C)C(CP(=O)(O)C(Cc1ccccc1)NC(=O)OCc1ccccc1)C(=O)N[C@@H](Cc1c[nH]c2ccccc12)C(=O)O (stereo partly shown) [Cbz, C6 H5CH2, H, iso-propyl]
pIC50 [2]: 5.89

O=C(NC(Cc1ccc2ccccc2c1)P(=O)(O)CC1(C(=O)N[C@@H](Cc2c[nH]c3ccccc23)C(=O)O)CCCC1)OCc1ccccc1 (stereo partly shown) [Cbz, 2-naphthylmethyl, R3 + R4 = (CH2)4]
pIC50 [2]: 6.30

COc1ccc(CC(NC(=O)OCc2ccccc2)P(=O)(O)CC2(C(=O)N[C@@H](Cc3c[nH]c4ccccc34)C(=O)O)CCCC2)cc1 (stereo partly shown) [Example 1A]
pIC50 [1]: 6.94

CC(C)C(CP(=O)(O)C(Cc1ccccc1)NC(=O)C(CCCCN)NS(C)(=O)=O)C(=O)N[C@@H](Cc1c[nH]c2ccccc12)C(=O)O (stereo partly shown)
pIC50 [2]: 6.30

CS(=O)(=O)N[C@@H](CCCCN)C(=O)NC(Cc1ccc(O)cc1)P(=O)(O)CC1(C(=O)N[C@@H](Cc2c[nH]c3ccccc23)C(=O)O)CCCC1 (stereo partly shown) [Example 5B]
pIC50 [1]: 7.00

CC(C)CC(NC(=O)[C@H](CCCCNC(=O)OCc1ccccc1)NS(C)(=O)=O)P(=O)(O)CC1(C(=O)N[C@@H](Cc2c[nH]c3ccccc23)C(=O)O)CCCC1 (stereo partly shown) [Example 3D]
pIC50 [1]: 7.26

CC(C)C(CP(=O)(O)C(Cc1ccccc1)NC(=O)C(CCCN)NS(C)(=O)=O)C(=O)N[C@@H](Cc1c[nH]c2ccccc12)C(=O)O (stereo partly shown)
pIC50 [2]: 6.26

O=C(N[C@@H](Cc1ccccc1)P(=O)(O)CC1(C(=O)N[C@@H](Cc2ccc(O)cc2)C(=O)O)CCCC1)OCc1ccccc1 [Example 2]
pIC50 [1]: 6.89

CS(=O)(=O)N[C@@H](CCCCNC(=O)OCc1ccccc1)C(=O)NC(Cc1ccc(O)cc1)P(=O)(O)CC1(C(=O)N[C@@H](Cc2c[nH]c3ccccc23)C(=O)O)CCCC1 (stereo partly shown) [Example 3B]
pIC50 [1]: 7.26

CC(C)C(CP(=O)(O)C(Cc1ccc2ccccc2c1)NC(=O)C(CCCCNC(=O)OCc1ccccc1)NS(C)(=O)=O)C(=O)N[C@@H](Cc1c[nH]c2ccccc12)C(=O)O (stereo partly shown)
pIC50 [2]: 6.10

CS(=O)(=O)N[C@@H](CCCCNC(=O)OCc1ccccc1)C(=O)N[C@@H](Cc1ccccc1)P(=O)(O)CC1(C(=O)N[C@@H](Cc2ccc(O)cc2)C(=O)O)CCCC1 [Example 4]
pIC50 [1]: 6.92

CC(C)CC(CP(=O)(O)C(Cc1ccccc1)NC(=O)C(CC(C)C)NC(=O)OCc1ccccc1)C(=O)N[C@@H](Cc1c[nH]c2ccccc12)C(=O)O (stereo partly shown)
pIC50 [2]: 6.80

O=C(NC(Cc1ccc(O)cc1)P(=O)(O)CC1(C(=O)N[C@@H](Cc2c[nH]c3ccccc23)C(=O)O)CCCC1)OCc1ccccc1 (stereo partly shown) [Example 8]
pIC50 [1]: 7.07

CC(C)C(CP(=O)(O)C(Cc1ccccc1)NC(=O)C(CCCCNC(=O)OCc1ccccc1)NC(=O)OCc1ccccc1)C(=O)N[C@@H](Cc1c[nH]c2ccccc12)C(=O)O (stereo partly shown)
pIC50 [2]: 5.96

CC(C)C(CP(=O)(O)C(Cc1ccccc1)NC(=O)C(CCCCNC(=O)OCc1ccccc1)NS(C)(=O)=O)C(=O)N[C@@H](Cc1c[nH]c2ccccc12)C(=O)O (single isomer, unassigned)
pIC50 [2]: 6.41

O=C(N[C@@H](Cc1ccccc1)P(=O)(O)CC1(C(=O)N[C@@H](Cc2c[nH]c3ccccc23)C(=O)O)CCCC1)OCc1ccccc1 [Example 1]
pIC50 [1]: 6.72

CC(C)CC(CP(=O)(O)C(CC1CCCC1)NC(=O)[C@H](CCCCNC(=O)OCc1ccccc1)NS(C)(=O)=O)C(=O)N[C@@H](Cc1c[nH]c2ccccc12)C(=O)O (stereo partly shown) [Example 10E]
pIC50 [1]: 7.26

CC(C)CC(CP(=O)(O)C(Cc1ccc2ccccc2c1)NC(=O)C(CCCCN)NS(C)(=O)=O)C(=O)N[C@@H](Cc1c[nH]c2ccccc12)C(=O)O (single isomer, unassigned)
pIC50 [2]: 7.17

CCC(C)C(NC(=O)OCc1ccccc1)C(=O)NC(Cc1ccccc1)P(=O)(O)CC(C(=O)N[C@@H](Cc1c[nH]c2ccccc12)C(=O)O)C(C)C (stereo partly shown)
pIC50 [2]: 6.40

CC(C)CC(CP(=O)(O)C(Cc1ccc2ccccc2c1)NC(=O)[C@H](CCCCNC(=O)OCc1ccccc1)NS(C)(=O)=O)C(=O)N[C@@H](Cc1c[nH]c2ccccc12)C(=O)O (single isomer, unassigned) [Example 9C]
pIC50 [1]: 5.35

CC(C)CC(CP(=O)(O)C(Cc1ccc2ccccc2c1)NC(=O)[C@H](CCCCNC(=O)OCc1ccccc1)NS(C)(=O)=O)C(=O)N[C@@H](Cc1c[nH]c2ccccc12)C(=O)O (single isomer, unassigned) [Example 9A]
pIC50 [1]: 7.19

O=C(NC(Cc1ccc(OCc2ccccc2)cc1)P(=O)(O)CC1(C(=O)N[C@@H](Cc2c[nH]c3ccccc23)C(=O)O)CCCC1)OCc1ccccc1 (stereo partly shown) [Example 1B]
pIC50 [1]: 6.40
